Experimental data published in patent US11166924B2, “N-methyl-d-aspartate receptor allosteric modulators and methods for their use” (Qingdao Primedicine Pharmaceutical Company, Ltd., priority 2016, dated 2021).

Tested on: GluN2A NMDARs
Test: NMDAR EPSC in brain slices of wild-type and GluN2A knockout mice
Parameters: species or system mouse
Conditions: FIG. 20
Method: Male and female wild-type or GluN2A KO mice 20-25-day old were anesthetized using Isoflurane and rapidly decapitated. Brains were removed and immersed for 30 sec in cold (2-4° C.) cutting solution containing: 92 mM NMDG, 2.5 mM KCl, 1.25 mM NaH2PO4, 30 mM NaHCO3, 20 mM HEPES, 4.5 mM D-glucose, 5 mM Na-ascorbate, 3 mM Na-pyruvate, 0.5 mM CaCl2, and 10 mM MgCl2. The brain was blocked in melted 3% agar-A (CAS #9002-18-0, Bio Basic Canada Inc.), then glued onto the slicing platform and sectioned coronally at 320 μm thickness with a vibratome (Leica VT 1000S) containing cold (2-4° C.) bubbled (95% O2/5% CO2) cutting solution. Sections that included the prefrontal cortex were transferred into continuously carbogenated pre-warmed (32-34° C.) cutting solution for a period of 12 min time for initial recovery. […]
A brain slice was transferred onto a recording chamber on an upright Nikon FN1 microscope and the chamber was continuously perfused with 32° C. carbogenated aCSF recording solution containing: 121.85 mM NaCl, 2.5 mM KCl, 1.2 mM NaH2PO4, 24 mM NaHCO3, 12.5 mM D-glucose, 5 mM Na-ascorbate, 3 mM Na-pyruvate, 2 mM CaCl2, 0.1 mM MgCl2. Pyramidal neurons were identified in layer V of the prefrontal cortex via video monitored infra-red differential interference contrast illumination microscopy using a CFI APO 40× W NIR objective (0.80 numerical aperture, 3.5 mm working distance). […]

Q: Which results are given for `CCOc1cc(Cl)c(Cl)c(/C=N/NC(=O)c2ccccc2Br)c1O` [Npam43, (E)-2-bromo-N′-(2,3-dichloro-5-ethoxy-6-hydroxybenzylidene)benzohydrazide]?
A: Effect on NMDAR EPSC, GluN2A KO mice (brain slices of GluN2A KO mice): no effect; Effect on NMDAR EPSC, WT mice (brain slices of wild-type mice): clear potentiation of NMDAR EPSC
